Earlier results in patent US20190314379A1, “METHODS OF USING CANNABINOID CB2 RECEPTOR AGONIST COMPOSITIONS TO SUPPRESS AND PREVENT OPIOID TOLERANCE AND WITHDRAWAL IN A SUBJECT” (Indiana University Research and Technology Corporation, priority 2018, published 2019).

Key:
keratinocytes = settings: cited from earlier work
[1] = system: Walker 256 tumor-bearing rats; settings: cited from earlier work
[2] = system: μ-opioid receptor expression; settings: spinal cord and dorsal root ganglia (DRG); cited from earlier work

With CN1CCCCC1Cn1cc(C(=O)c2cc([N+](=O)[O-])ccc2I)c2ccccc21 (stereo not shown) [AM1241] as the compound, how does the “release of β-endorphin” value (keratinocytes) read?
Its value is “stimulated the release of the endogenous opioid β-endorphin”.

And the morphine tolerance ([1]; low dose coadministered with morphine)?
The morphine tolerance was “reduced the morphine tolerance”.

What about the “opioid-mediated antinociception, hotplate and mechanical sensitivity” value ([1]; tumor-bearing rats) of the same compound?
The value was “modest enhancement of opioid-mediated antinociception”.

What about the μ-opioid receptor expression [2] of the same compound?
Its μ-opioid receptor expression is “upregulated μ-opioid receptor expression”.
